Values joined by “and” are separate entries in the source; they are usually repeats but may differ in a detail not shown here. Equal entries are not always repeated.
Biological target: crude AD brain extracts (tau seeds) in HEK293T tau biosensor cells (Homo sapiens, UniProt P10636)
Assay: Tau biosensor cell seeding assay, screen with crude AD brain extracts
Format: cell-based
Conditions: 10 μM inhibitor on cells, seeds pre-incubated 16–18 h at 4 °C, individual replicates (n=3), DMSO control 10734.9/12808.5/11145.3
From the text: From the in silico screen, compounds were ranked and 46 were selected for further experimental validation based on the total binding energy of the ligand/fibril complex. The experimental assessment consisted of direct measures of fibril disassembly (Fig. 2d, e and Supplementary Table 3) and assessment of the seeding capability of the products of disassembled AD tau fibrils in a biosensor cell assay. Disaggregating molecules that produce active seeds are undesirable for therapy and are excluded from further study. HEK293T cells expressing CFP- or YFP-fused tau are transduced with exogenous AD tau fibrils. Externally applied AD-tau fibrils then induce the aggregation of the endogenous fluorescent tau, resulting in the formation of FRET-positive intracellular aggregates, visible as bright puncta by fluorescence microscopy (Fig. 2f). Automated image analysis of visible puncta provides an objective quantification of seeded aggregation. […] Although biosensors may be limited in reporting structural characteristics of fibril progeny, they offer exquisitely sensitive measures of tau seeding activity—the ability for fibrils to recruit monomeric protein into fibrillar form, which is thought to be the mechanism for tau spreading in AD.
Human autopsy samples were obtained by the Mayo Clinic Brain Bank and UCLA Pathology Department according to HHS regulations from patients consenting to autopsy. Samples were provided to the researchers of this study as anonymized tissues. For purification of paired helical filaments (PHFs) and straight filaments (SFs) from AD brain tissue, extractions were performed according to the previously published protocol without any modifications. […] For biosensor seeding assays with crude AD brain extracts, fresh-frozen tissue from neuropathologically confirmed AD cases was thawed and cut into a 0.2–0.3 g sections. Tissue was manually homogenized in a 15 ml disposable tube in 1 ml of 50 mM Tris, pH 7.4 with 150 mM NaCl, and then aliquoted to PCR tubes and sonicated in a cuphorn bath for 120 min under 30% power at 4 °C in a recirculating ice water bath, according to reference.
HEK293T cell lines stably expressing tau-K18 P301S-eYFP were obtained from Marc Diamond[25] and used without further characterization or authentication. […] Inhibitors were dissolved in DMSO. […] After twenty minutes, 10 µl of fibrils were added to 90 µl of tau biosensor cells. The number of seeded aggregates was determined by imaging the entire well of a 96-well plate in triplicate using a Celigo Image Cytometer (Nexcelom) in the YFP channel. The number of aggregates in a given image was determined using an ImageJ 2.3.0[50] script, which subtracts the background fluorescence from unseeded cells, and then counts the number of aggregates as peaks with fluorescence above the background using the built-in Particle Analyzer. The number of aggregates was normalized to the confluence of each well, and dose-response plots were generated by calculating the average and standard deviations from triplicate measurements.

Chain of crude AD brain extracts (tau seeds) in HEK293T tau biosensor cells (P10636 623-695 limits assumed): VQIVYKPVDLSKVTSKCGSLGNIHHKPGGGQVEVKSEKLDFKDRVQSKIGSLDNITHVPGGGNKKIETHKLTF

CC1=C(C(=O)Nc2cccc(C)n2)C(c2ccccc2C)C2=C(CCCC2=O)N1 (stereo not drawn) [CNS-6, 2-methyl-4-(2-methylphenyl)-N-(6-methyl-2-pyridinyl)-5-oxo-1,4,5,6,7,8-hexahydro-3-quinolinecarboxamide]
Number of seeded aggregates in tau biosensor cells (normalized to confluence), Fig. 2e (listed as 6343767): 6727.54 and 6497.71 and 11400

COc1cccc(C2C(C(=O)Nc3ccccn3)=C(C)NC3=C2C(=O)CCC3)c1 (stereo not drawn) [CNS-5, 4-(3-methoxyphenyl)-2-methyl-5-oxo-N-2-pyridinyl-1,4,5,6,7,8-hexahydro-3-quinolinecarboxamide]
Number of seeded aggregates in tau biosensor cells (normalized to confluence), Fig. 2e (listed as 6327117): 5790.63 and 5091.84 and 10386.8

CN(C)S(=O)(=O)c1ccc2c(c1)/C(=C/c1cc3c([nH]1)CCCC3)C(=O)N2 [su6656]
Number of seeded aggregates in tau biosensor cells (normalized to confluence), Fig. 2e: 5170.49 and 6311.14 and 10607

Cc1ccc(-n2nccn2)c(C(=O)N2CCN(c3nc4cc(Cl)ccc4o3)CC[C@H]2C)c1 [FDA-A-20, Suvorexant]
Number of seeded aggregates in tau biosensor cells (normalized to confluence), Fig. 2e: 10609.4 and 12014.6 and 14701.5

Oc1c(Cl)cc(Cl)c2cccnc12 [5,7-dichloro-8-quinolinol AKA Chloroxine, 5,7-dichloro-8-quinolinol]
Number of seeded aggregates in tau biosensor cells (normalized to confluence), Fig. 2e: 8929.14 and 10028.6 and 22099.9

CNS(=O)(=O)CCc1ccc2[nH]cc(C3CCN(C)CC3)c2c1 [FDA-R-4, Naratriptan]
Number of seeded aggregates in tau biosensor cells (normalized to confluence), Fig. 2e: 8578.9 and 6012.3 and 15427

Cc1cccc(-c2noc(-c3ccccc3C(=O)NCc3cccnc3)n2)c1 [CNS-24, 2-[3-(3-methylphenyl)-1,2,4-oxadiazol-5-yl]-N-(3-pyridinylmethyl)benzamide]
Number of seeded aggregates in tau biosensor cells (normalized to confluence), Fig. 2e (listed as 9002758): 4798.71 and 2194.24 and 9734.93

O=[N+]([O-])O[C@@H]1CO[C@H]2[C@@H]1OC[C@@H]2O [FDA-R-17, Isosorbide Mononitrate]
Number of seeded aggregates in tau biosensor cells (normalized to confluence), Fig. 2e (listed as isosorbide mononitrate mw): 7858.85 and 13647.5 and 18697.1

C[C@]12C=CC(=O)N[C@@H]1CC[C@@H]1[C@@H]2CC[C@]2(C)[C@@H](C(=O)Nc3cc(C(F)(F)F)ccc3C(F)(F)F)CC[C@@H]12 [FDA-A-9, Dutasteride]
Number of seeded aggregates in tau biosensor cells (normalized to confluence), Fig. 2e: 6197.61 and 4567.33 and 9824.67

CC1=C(C(=O)Nc2ccccn2)C(c2ccc(F)cc2)C2=C(CCCC2=O)N1 (stereo not drawn) [CNS-4, 4-(4-fluorophenyl)-2-methyl-5-oxo-N-2-pyridinyl-1,4,5,6,7,8-hexahydro-3-quinolinecarboxamide]
Number of seeded aggregates in tau biosensor cells (normalized to confluence), Fig. 2e (listed as 6317572): 8103.61 and 7551.45 and 17671.3

Cc1ccc(S(=O)(=O)N(C(F)F)C(C)(C)C)cc1 [CNS-9, N-(tert-butyl)-N-(difluoromethyl)-4-methylbenzenesulfonamide]
Number of seeded aggregates in tau biosensor cells (normalized to confluence), Fig. 2e (listed as 6933498): 6268.06 and 9513.63 and 13394.2

CN(C)CCCN1c2ccccc2CCc2ccccc21 [FDA-R-24, Imipramine]
Number of seeded aggregates in tau biosensor cells (normalized to confluence), Fig. 2e: 13643.9

Cn1c(=O)n(C)c2cc3c(cc21)nc1c2cccc4cccc(c(=O)n31)c42 [CNS-1, 10,12-dimethyl-10,12-dihydro-7H,11H-benzo[de]imidazo[4',5':5,6]benzimidazo[2,1-a]isoquinoline-7,11-dione]
Number of seeded aggregates in tau biosensor cells (normalized to confluence), Fig. 2e (listed as 7850915): 11080.3 and 15413.1 and 17191

O=C(c1cc2cc(Br)ccc2oc1=O)N1CCc2ccccc2C1 [CNS-10, 6-bromo-3-(3,4-dihydro-2(1H)-isoquinolinylcarbonyl)-2H-chromen-2-one]
Number of seeded aggregates in tau biosensor cells (normalized to confluence), Fig. 2e (listed as 6991358): 4869.84 and 6105.12 and 9256.09

C/C=C(/C)C(=O)O[C@H]1C(C)=C[C@]23C(=O)[C@@H](C=C(CO)[C@@H](O)[C@]12O)[C@H]1[C@@H](C[C@H]3C)C1(C)C [FDA-A-13, Ingenol mebutate]
Number of seeded aggregates in tau biosensor cells (normalized to confluence), Fig. 2e (listed as ingenol-3-angelate): 10027.6 and 8367.28 and 13011.7

CNC(=C[N+](=O)[O-])NCCSCc1csc(CN(C)C)n1 [FDA-R-7, Nizatidine]
Number of seeded aggregates in tau biosensor cells (normalized to confluence), Fig. 2e: 6548.12 and 9220.9 and 15017.2

CN1C[C@H](C(=O)N[C@]2(C)O[C@@]3(O)[C@@H]4CCCN4C(=O)[C@H](Cc4ccccc4)N3C2=O)C[C@@H]2c3cccc4[nH]cc(c34)C[C@H]21 [FDA-A-23, Dihydroergotamine]
Number of seeded aggregates in tau biosensor cells (normalized to confluence), Fig. 2e (listed as dihydroergotamine mesylate): 6873.71 and 6659.65 and 11949.1

CCCCCCCCCC(=O)OCCN1CCN(CCCN2c3ccccc3Sc3ccc(C(F)(F)F)cc32)CC1 [FDA-R-15, Prolixin decanoate]
Number of seeded aggregates in tau biosensor cells (normalized to confluence), Fig. 2e (listed as Prolixin decanoate aka fluphenazine): 15859.2 and 19243.3 and 27665.8

CC(=O)Nc1cc(-c2nn(C)c(=O)c3ccccc23)ccc1N1CCCCC1 [CNS-19, N-[5-(3-methyl-4-oxo-3,4-dihydro-1-phthalazinyl)-2-(1-piperidinyl)phenyl]acetamide]
Number of seeded aggregates in tau biosensor cells (normalized to confluence), Fig. 2e (listed as 7520752): 9057.73 and 5534.89 and 16287.3

Cc1nc2c([nH]1)-c1ccccc1N(C(=O)c1ccc(NC(=O)c3ccccc3-c3ccccc3)cc1)CC2 [FDA-A-16, Conivaptan]
Number of seeded aggregates in tau biosensor cells (normalized to confluence), Fig. 2e: 15272 and 13297.5 and 27692

COc1cc([C@@H]2c3cc4c(cc3[C@@H](O[C@@H]3O[C@@H]5CO[C@@H](c6cccs6)O[C@H]5[C@H](O)[C@H]3O)[C@H]3COC(=O)[C@H]23)OCO4)cc(OC)c1O [FDA-A-11, Teniposide]
Number of seeded aggregates in tau biosensor cells (normalized to confluence), Fig. 2e: 28315 and 23778 and 42223.8

C[C@@H]1C/C=C/C=C/C=C/C=C/[C@H](O[C@@H]2O[C@H](C)[C@@H](O)[C@H](N)[C@@H]2O)C[C@@H]2O[C@](O)(C[C@@H](O)C[C@H]3O[C@@H]3/C=C/C(=O)O1)C[C@H](O)[C@H]2C(=O)O [FDA-R-19, Natamycin]
Number of seeded aggregates in tau biosensor cells (normalized to confluence), Fig. 2e: 9211.55 and 6199.61 and 13007.3

N#Cc1c2c(n3cc4ccccc4cc13)C(=O)c1ccccc1C2=O [CNS-20, 5,14-dioxo-5,14-dihydrobenzo[5,6]indolo[1,2-b]isoquinoline-13-carbonitrile]
Number of seeded aggregates in tau biosensor cells (normalized to confluence), Fig. 2e (listed as 7663820): 40070.2 and 48758.2 and 61897.7

CO[C@H]1C[C@@H]2CC[C@@H](C)[C@@](O)(O2)C(=O)C(=O)N2CCCC[C@H]2C(=O)O[C@H]([C@H](C)C[C@@H]2CC[C@@H](OCCO)[C@H](OC)C2)CC(=O)[C@H](C)/C=C(\C)[C@@H](O)[C@@H](OC)C(=O)[C@H](C)C[C@H](C)/C=C/C=C/C=C/1C [FDA-A-7, Everolimus]
Number of seeded aggregates in tau biosensor cells (normalized to confluence), Fig. 2e: 3758.68 and 4378.2 and 11639.6

Reference: article PMC9481533, “Structure-based discovery of small molecules that disaggregate Alzheimer’s disease tissue derived tau fibrils in vitro” (Nature Communications, 2022)
